Source: patent publication US4618598A, “Method of regulating hormone function or release” (Duke University, priority 1982, dated 1986)
One block for each compound: values may come before it.

Assays:
pituitary cell cultures [1] = details: for effect on conjugate-stimulated LH release: Example 4, 2 mM EGTA (1.25 mM extracellular calcium), five micromolar Pimozide; for effect on LH release stimulated by dimer plus antibody: Example 7, 5 μM Pimozide or 2 mM EGTA, all titers, 1.5×10^-11 M dimer
Protocol: (§1) Luteinizing hormone release from pituitary cell cultures is dependent upon the binding of the gonadotropin releasing hormone to its specific cell surface receptor. […] In FIG. 2 the antagonist activity of GnRH-Ant was measured in a cell culture bioassay. Two day pituitary cell cultures were incubated with 10^-8 M, 10^-9 M, or no GnRH at the indicated concentration of antagonist. After the 5 h incubation period, the medium was assayed for LH by RIA using rat LH antisera (LHS-4), highly purified rat LH for labeling (LH I-4), and rat LH standard (LH-RP-1) which were made available by a grant from the NIAMDD Hormone Distribution Office (prepared by Dr. A. Parlow, Torrance, CA.). The assay was performed as described below, except that second antibody was used to separate the bound and free [^ 125 -I]-LH.
Cell cultures were prepared, by collagenase-hyaluronidase dispersion of pituitaries from 25-day-old female weanling rats. The cultures were then incubated for 2 days at 37 C. in culture plates. […] After the culture period, the cells were washed free of debris and sera with medium 199 containing 0.3% bovine serum albumin (Cohn fraction V; 199/BSA) and incubated with the indicated compounds. Medium 199 normally contains 1 mM Ca^2+. Cells were incubated in 1.0 ml medium for 3 h. After the incubation period, the supernatant fraction was removed from the cells (attached to the culture dish) with a Pasteur pipette and assayed for LH by RIA employing rat LH antisera (LHS-5), highly purified rat LH for labeling (LH-I-6), and rat LH standard (LH-RP-1), all of which were made available by the NIAMMD Hormone Distribution Office and were prepared by Dr. A. Parlow (Torrance, CA). The assay was performed, using immobile protein A to separate the bound and free [^125 I]LH. […] LH release was normalized by DNA determination in order to correct for slight differences in cell numbers in different assay wells.
Rabbit anti-D-Lys^6 -GnRH (antiserum No. 5111 prepared by immunization with D-Lys^6 coupled to bovine serum albumin (BSA) with glutaraldehyde) was added without additional purification in an amount sufficient to bind 8-10% of the dimer. The antibody was added in a final volume of 50 μl (with Medium 199 containing 0.3% BSA and 2 mg NaN3). The reaction ws allowed to proceed 10 h at room temperature and then 2 days at 10° C. Immediately before the cell bioassay, the solution was applied to a 12 ml calibrated G-75 column (10×260 mm) equilibrated in 199/BSA. Twenty drop fractions (about 300 μl) were collected and brought to 1.0 ml with 199/BSA. […] Where monovalent antibody is specified, the reduced pepsin fragment of antibody (No. 5111) was substituted for intact antibody in the conjugation described above. In this case ammonium sulfate fractionated IgG was dissolved in 50 mM acetate buffer, pH 4.5 and digested with pepsin (Worthington Biochemical Corp.) at an enzyme:substrate ratio of 1:100 for 50 min at […]. Digestion was stopped by neutralization with 1M Tris-HCL, pH 8.0 and 0.1N NaOH. Precipitated material was removed by centrifugation and 2-mercaptoethanol added to the supernatant at a final concentration of 0.75 mM. The solution was maintained at room temperature for 1 h, then cooled in ice cold water.

pituitary cell cultures [2] = experiment: Inhibition of GnRH-stimulated LH release from pituitary cell cultures (antagonist function); type: cell-based, rat
Protocol: as §1, with “FIG. 2 illustrates the ability of the gonadotropin releasing hormone antagonist to inhibit gonadotropin releasing hormone-stimulated LH release from pituitary cell cultures. Luteinizing” for “Luteinizing”, “receptor. The GnRH-antagonist binds to this receptor and blocks stimulation by GnRH.” for “receptor.”
Cell cultures were prepared, by collagenase-hyaluronidase dispersion of pituitaries from 25-day-old female weanling rats. The cultures were then incubated for 2 days at 37 C. in culture plates. […]

[3] = molecular target: T1, gonadotropin releasing hormone receptor (Rattus norvegicus, UniProt P30969); experiment: Competitive binding against [125-I] Buserelin on pituitary plasma membrane fraction
T1 construct: gonadotropin releasing hormone sites on a plasma membrane fraction from the rat pituitary; from tissue; host or cells: rat pituitary plasma membrane fraction
T1 sequence (P30969 1-327): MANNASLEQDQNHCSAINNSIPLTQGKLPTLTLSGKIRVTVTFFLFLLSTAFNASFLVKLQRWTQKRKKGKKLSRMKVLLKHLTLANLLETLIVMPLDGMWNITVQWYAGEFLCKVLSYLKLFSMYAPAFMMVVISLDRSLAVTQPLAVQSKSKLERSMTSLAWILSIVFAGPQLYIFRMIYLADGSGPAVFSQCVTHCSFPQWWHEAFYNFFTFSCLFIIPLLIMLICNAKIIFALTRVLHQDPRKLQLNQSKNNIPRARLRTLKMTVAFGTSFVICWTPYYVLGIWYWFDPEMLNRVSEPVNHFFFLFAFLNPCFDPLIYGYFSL
Description: [125-I]-Tyr^5 -D-ser(tert-butyl)^6 -desGly^10 -Pro^9 ethylamid-GnRH ([125-I] Buserelin, Hoechst Pharmaceuticals) binds to the gonadotropin releasing hormone receptor sites on the plasma membrane. The ability to compete with the iodine labelled Buserelin indicates the relative affinity for the receptor. […] The data are expressed in terms of equivalents of releasing hormone analogue showing the radioligand bound in the presence of the indicated analogue concentration (B) compared to that bound in the absence of added analog (Bo).
The binding assay was conducted in polypropylene microfuge tubes which were precoated overnight with 1% BSA. The assay contained approximately 20,000 cpm of ^125 I-labeled Buserelin and 30 μg of membrane protein, in the presence or absence of 10^-5 M GnRH. In some competition experiments, the amount of added GnRH was altered as indicated. To determine the specificity of binding, des-pGlu^1 -GnRH (Bachem, Torrance, Calif.), D-Ala^6 -GnRH (Peninsula Laboratories, Inc., San Carlos, Calif.), D-Phe^2 -D-Ala^6 -GnRH (Wyeth Laboratories, Philadelphia, Pa.) TRH (Peninsula Laboratories), arg^8 -vasopressin (Calbiochem, San Diego, Calif.), or somatostatin (Beckman Instruments, Fullerton, Calif.) were added at the indicated concentrations. The final assay volume was 500 μl adjusted with 10 mM Tris-0.1% BSA. Following a 2-hr incubation on ice, bound and free hormone were separated by centrifugation. (Eppendorf microfuge, 12,800×g, 5 min) through 100 μl of 10% (w/v) sucrose. The tips of the tubes were cut off and radioactivity was determined by γ-spectroscopy. […] For some kinetic studies, bound hormone and free hormone were separated by the method of rapid filtration. Incubations were performed in triplicate. Specific binding was determined by subtracting nonspecific binding (in the presence of excess unlabeled GnRH) from total binding (no GnRH). Scatchard analysis of the binding data, using linear regression analysis to establish best-line fit, was used to determine the number and binding affinity of GnRH receptors. […]

Compound: CC(C)C[C@H](NC(=O)[C@@H](CCCCNC(=O)CCC(=O)OCCOC(=O)CCC(=O)NCCCC[C@@H](NC(=O)[C@H](Cc1ccc(O)cc1)NC(=O)[C@H](CO)NC(=O)[C@H](Cc1c[nH]c2ccccc12)NC(=O)[C@H](Cc1c[nH]cn1)NC(=O)[C@@H]1CCC(=O)N1)C(=O)N[C@@H](CC(C)C)C(=O)N[C@@H](CCCNC(=N)N)C(=O)N1CCC[C@H]1C(=O)NCC(N)=O)NC(=O)[C@H](Cc1ccc(O)cc1)NC(=O)[C@H](CO)NC(=O)[C@H](Cc1c[nH]c2ccccc12)NC(=O)[C@H](Cc1c[nH]cn1)NC(=O)[C@@H]1CCC(=O)N1)C(=O)N[C@@H](CCCNC(=N)N)C(=O)N1CCC[C@H]1C(=O)NCC(N)=O [(D-Lys^6 -GnRH)2 -EGS dimer]
ED50 of LH release (pituitary cell cultures [1]): 0.8 nM

Compound: O=C(O)CN(CCOCCOCCN(CC(=O)O)CC(=O)O)CC(=O)O [EGTA]
effect on conjugate-stimulated LH release (pituitary cell cultures [1]): blocked | effect on LH release stimulated by dimer plus antibody (pituitary cell cultures [1]): diminished LH release to near basal

Compound: CC(C)C[C@H](NC(=O)[C@@H](CCCCN)NC(=O)[C@H](Cc1ccc(O)cc1)NC(=O)[C@H](CO)NC(=O)[C@H](Cc1c[nH]c2ccccc12)NC(=O)[C@H](Cc1c[nH]cn1)NC(=O)[C@@H]1CCC(=O)N1)C(=O)N[C@@H](CCCNC(=N)N)C(=O)N1CCC[C@H]1C(=O)NCC(N)=O [D-Lys^6 -GnRH, pyro glutamic acid-histidine-tryptophan-serine-tyrosine-D-lysine-leucine-arginine-proline-glycine-NH2]
stimulated LH release (pituitary cell cultures [1]; Example 7, 10^-7 M): 58±6 ng/100 ng DNA

Compound: GnRH: natural sequence gonadotropin releasing hormone (QHWSYGLRPG; Gonadoliberin-1; UniProt P01148 24-33, looked up)
LH release in response to GnRH (pituitary cell cultures [1]; Example 4, 10^-7 moles GnRH, five hour period): 13.6±0.9 ng LH/20 μL of medium | concentration at which maximum LH release is reached (pituitary cell cultures [1]; FIG. 6): 10^-7 molar

Compound: O=c1[nH]c2ccccc2n1C1CCN(CCCC(c2ccc(F)cc2)c2ccc(F)cc2)CC1 [Pimozide]
effect on conjugate-stimulated LH release (pituitary cell cultures [1]): blocked | effect on LH release stimulated by dimer plus antibody (pituitary cell cultures [1]): diminished LH release to near basal

IC50 (pituitary cell cultures [2]; GnRH-stimulated (10^-9 molar), pituitary cultures, read-out: 50% inhibitory concentration (IC50) of GnRH-stimulated gonadotropin release): 0.2 nM | binding affinity relative to natural sequence gonadotropin releasing hormone ([3]; printed as less affinity than natural GnRH, in equivalents of monomeric hormone): about 50 fold
Compound: D-pyroglumatic acid-D-phenylalanyl-D-tryptophanyl-D-lysyl-GnRH [GnRH-antagonist]
antagonist action on GnRH-stimulated LH release (pituitary cell cultures [2]): blocks the action of both 10^-8 molar and 10^-9 molar GnRH | binding affinity compared with natural GnRH [3]: higher affinity than natural sequence releasing hormone

Compound: CCNC(=O)[C@@H]1CCCN1C(=O)[C@H](CCCNC(=N)N)NC(=O)[C@H](CC(C)C)NC(=O)[C@@H](COC(C)(C)C)NC(=O)[C@H](Cc1ccc(O)cc1)NC(=O)[C@H](CO)NC(=O)[C@H](Cc1c[nH]c2ccccc12)NC(=O)[C@H](Cc1cnc[nH]1)NC(=O)[C@@H]1CCC(=O)N1 [Buserelin]
IC50 [3]: ~0.1 nM
